These results are taken from patent US6469030B2, “Methods for the treatment and prevention of ileus” (Adolor Corporation, priority 1999, dated 2002).

Data set [1] deals with patients undergoing partial colectomy or simple or radical hysterectomy surgical procedures. Put plainly: Phase II clinical study versus placebo in patients after abdominal surgery (post-surgical ileus). It is filed as in vivo, humans. On the procedure:
A 78 patient Phase II clinical study was conducted which compared two doses (2 mg and 12 mg) of the compound of formula (II) versus placebo in patients undergoing partial colectomy or simple or radical hysterectomy surgical procedures. The results of this study are set forth in the following Tables 1 to 4 and are depicted graphically in FIGS. 1 to 5.
The time to first flatus was reduced by 15 hours; all other measures were reduced by 24 hours or more. […] In particular, none of the patients receiving the higher dose of the compound of formula (II) experienced post-surgical vomiting compared to 23% in the placebo control group (P<0.03). Twenty seven percent of the patients receiving the higher dose of compound (II) experienced clinically relevant post- surgical nausea compared to 63% of the placebo control group (P=0.003).

For data set [2], the target named is mu opioid receptors (Homo sapiens, UniProt P35372). The conditions noted are these: opioid receptor binding assays; cited from earlier work.
mu opioid receptors, sequence (P35372 whole entry): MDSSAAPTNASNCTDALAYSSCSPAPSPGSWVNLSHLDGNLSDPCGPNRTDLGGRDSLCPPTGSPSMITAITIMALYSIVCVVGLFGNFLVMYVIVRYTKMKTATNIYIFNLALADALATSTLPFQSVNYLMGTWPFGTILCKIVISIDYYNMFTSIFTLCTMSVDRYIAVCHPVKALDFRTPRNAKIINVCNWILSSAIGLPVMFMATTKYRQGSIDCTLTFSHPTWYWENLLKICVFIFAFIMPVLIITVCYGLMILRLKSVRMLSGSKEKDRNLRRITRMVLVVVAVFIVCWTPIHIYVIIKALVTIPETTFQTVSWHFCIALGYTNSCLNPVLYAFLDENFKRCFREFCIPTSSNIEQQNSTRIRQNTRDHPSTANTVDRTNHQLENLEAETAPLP
A short description of data set [3]: Solubility in water. It is filed as physicochemical. The settings on record: except at low or high pH conditions. An excerpt: Zwitterionic character may be inherent to the compound, and may impart desirable properties such as poor systemic absorption and sustained local affect on the gut following oral administration.

As to `C[C@H]1CN(C[C@H](Cc2ccccc2)C(=O)NCC(=O)O)CCC1(C)c1cccc(O)c1` (single isomer, unassigned; (+)) [compound of formula (II), (+)-Z—NHCH2C(O)OH], in data set [1] (higher dose), the “overall adverse effects compared with placebo-treated group” value is on record as “fewer overall adverse effects”. In data set [1] (higher dose versus placebo), the “reduction of all other measures (first bowel movement, solid diet, ready for discharge, discharge)” value was not below 24 h and the “reduction of time to first flatus” value is 15 h. In addition, the “patients experiencing post-surgical vomiting” value in data set [1] (higher dose, 23% in the placebo control group (P<0.03)) is reported as “none”. For the same compound, the “patients experiencing clinically relevant post-surgical nausea” value in data set [1] (higher dose, 63% of the placebo control group (P=0.003)) was “Twenty seven”. Moreover, the “serious adverse side effects judged related to the compound” value in data set [1] (patients of the trial) was “No patients experienced serious adverse side effects”. In addition, the “effect on beneficial analgesic effects of systemic narcotics” value in data set [1] (patients receiving systemic narcotics for post-surgical pain) is on record as “did not reduce the beneficial analgesic effects”. Also, the “opioid receptor binding preference” value in data set [2] is given as “preferential binding to mu opioid receptors”. Moreover, the solubility in water entry in data set [3] is on record as “low solubility in water”.
